Laboratory results taken from PubChem BioAssay (NCI).
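Where inhibition never reached the appropriate level, the endpoint shown equals the highest concentration tested. Otherwise, values were interpolated linearly from a five-concentration, 48-hour dose response in 96-well plates. Here, GI50 denotes the concentration required for 50% inhibition of growth. TGI denotes the concentration required for complete inhibition of growth.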

Columns and labels:
Test in all cases: NCI tumour cell line growth inhibition, 48 h
SNB-19 CNS = tested on: SNB-19 CNS
SR leukemia = tested on: SR leukemia
SK-MEL-2 melanoma = tested on: SK-MEL-2 melanoma
RPMI-8226 leukemia = tested on: RPMI-8226 leukemia
NCI-H522 lung = tested on: NCI-H522 lung
SK-MEL-28 melanoma = tested on: SK-MEL-28 melanoma
A549 NSCLC = tested on: A549 NSCLC
UO-31 renal = tested on: UO-31 renal
SN12C renal = tested on: SN12C renal
CAKI-1 renal = tested on: CAKI-1 renal

SMILES	GI50 (SNB-19 CNS)	TGI (SNB-19 CNS)	GI50 (SR leukemia)	TGI (SR leukemia)	GI50 (SK-MEL-2 melanoma)	TGI (SK-MEL-2 melanoma)	GI50 (RPMI-8226 leukemia)	TGI (RPMI-8226 leukemia)	GI50 (NCI-H522 lung)	TGI (NCI-H522 lung)	GI50 (SK-MEL-28 melanoma)	TGI (SK-MEL-28 melanoma)	GI50 (A549 NSCLC)	TGI (A549 NSCLC)	GI50 (UO-31 renal)	TGI (UO-31 renal)	GI50 (SN12C renal)	TGI (SN12C renal)	TGI (CAKI-1 renal)	GI50 (CAKI-1 renal)
CSc1nnc(-c2cc3c([nH]c4ccccc43)c(-c3cccc(O)c3)n2)n1-c1ccc(C)cc1	3.71 µM	28.6 µM	2.09 µM	> 100 µM	2.11 µM	6.61 µM	5.31 µM	> 100 µM	2.26 µM	11.1 µM	2.23 µM	7.74 µM	3.79 µM	24.6 µM	1.93 µM	29.1 µM	5.83 µM	81.6 µM	–	–
Cc1ccc(C2[C@H]3C(=O)N(c4ccc(Cc5ccc(N6C(=O)[C@@H]7ON(c8ccccc8)C(c8ccc(C)cc8)[C@@H]7C6=O)cc5)cc4)C(=O)[C@H]3ON2c2ccccc2)cc1 (stereo partly drawn)	–	–	–	–	–	> 100 µM	–	> 100 µM	–	–	–	> 100 µM	–	> 100 µM	–	> 100 µM	–	> 100 µM	> 100 µM	–
CC(C)N1C(C)[C@@H](c2ccccc2)O[P@@]1(=O)CC1=CCCCC1 (stereo partly drawn)	–	–	–	> 100 µM	–	> 100 µM	–	> 100 µM	–	> 100 µM	–	> 100 µM	–	> 100 µM	–	> 100 µM	–	> 100 µM	–	–
O=C1CC(Cc2n[nH]c3c2CCCC3)CC(=O)N1	–	–	–	> 100 µM	–	> 100 µM	–	> 100 µM	–	–	–	> 100 µM	–	> 100 µM	–	–	–	> 100 µM	> 100 µM	–
Cc1cc2c3c([n+](C)c4ccc(F)cc4c3c1)-c1cc(F)ccc1N2C	4.13 µM	> 100 µM	–	–	10.9 µM	28.6 µM	5.13 µM	36.4 µM	6.86 µM	29.4 µM	9.77 µM	34.9 µM	43.5 µM	> 100 µM	> 100 µM	> 100 µM	2.34 µM	23.5 µM	> 100 µM	> 100 µM
CN(CCCN1C(=O)c2cccc3cc([N+](=O)[O-])cc(c23)C1=O)CCN(C)CCCN1C(=O)c2cccc3cc([N+](=O)[O-])cc(c23)C1=O	–	> 39.3 µM	–	–	–	> 39.3 µM	–	> 39.3 µM	–	> 39.3 µM	–	> 39.3 µM	–	> 39.3 µM	–	–	–	> 39.3 µM	> 39.3 µM	–
O=[N+]([O-])c1ccc(C2SCc3nc4ccccc4n32)cc1 (stereo not drawn)	–	> 100 µM	–	> 100 µM	–	> 100 µM	–	–	–	–	–	> 100 µM	–	> 100 µM	–	> 100 µM	–	> 100 µM	> 100 µM	–
CC(C)(C)C(=O)c1c(C(F)(F)F)n([O-])c2cc(Cl)c(Cl)cc2[n+]1=O	0.609 µM	1.28 µM	–	–	0.903 µM	2.28 µM	0.131 µM	0.281 µM	0.538 µM	1 µM	0.618 µM	1.6 µM	0.952 µM	2.39 µM	0.403 µM	0.805 µM	0.778 µM	2.09 µM	0.639 µM	0.248 µM
C[C@]12CC(C=O)C(=O)C(O)=C1CC[C@@H]1C2CC[C@@]2(C)C1CC[C@]2(C)O (stereo partly drawn)	–	63.5 µM	–	–	–	26.6 µM	–	48.8 µM	–	–	–	68.1 µM	–	> 100 µM	–	51.1 µM	–	42.4 µM	–	–
Cc1cc(-c2nc3n(c2/C=N/N=C(N)N)CCS3)c(C)s1	17.2 µM	35.3 µM	–	–	–	–	14 µM	30.7 µM	–	–	15.1 µM	29.4 µM	15.7 µM	44.3 µM	17.8 µM	36.8 µM	14.9 µM	28.9 µM	23.8 µM	8.02 µM
COc1ccc2c(CCCc3ccc(Cl)cc3Cl)c3[n+](cc2c1OC)CCc1cc2c(cc1-3)OCO2	–	–	–	–	–	–	–	–	–	–	0.492 µM	1.83 µM	–	–	1.58 µM	3.08 µM	–	–	23.7 µM	5.1 µM
CCCCCN(CCCCC)C(=O)[C@H](CCC(=O)O)NC(=O)c1cc2ccccc2[nH]1	–	> 100 µM	–	–	–	> 100 µM	–	54.8 µM	–	67.7 µM	–	96.4 µM	–	> 100 µM	–	> 100 µM	–	> 100 µM	> 100 µM	–
CC1=CC(C)(C)Nc2ccc(Cc3ccc4c(c3)C(C)=CC(C)(C)N4)cc21	17.2 µM	> 100 µM	–	–	12.5 µM	40.6 µM	2.02 µM	23.5 µM	3.56 µM	16.1 µM	20.3 µM	> 100 µM	12.2 µM	> 100 µM	7.27 µM	65.8 µM	11.2 µM	> 100 µM	> 100 µM	13 µM
Cc1ccc(-c2c3c(nn2-c2ccc(S(=O)(=O)NC(=O)NC4CCCCC4)cc2)-c2ccccc2C3)cc1	20.1 µM	49.7 µM	–	–	16.8 µM	32 µM	2.44 µM	7.42 µM	12 µM	28.9 µM	18.3 µM	37.5 µM	20.2 µM	44 µM	1.33 µM	2.64 µM	19.4 µM	35.6 µM	41.8 µM	18 µM
C=C1C(=O)O[C@H]2[C@H]1CC/C(COC(=O)CCCCCCCC(=O)OC/C1=C/CC[C@@]3(C)O[C@H]3[C@H]3OC(=O)C(=C)[C@@H]3CC1)=C\CC[C@@]1(C)O[C@@H]21	4.85 µM	19.2 µM	0.398 µM	10.6 µM	11.3 µM	31.5 µM	1.31 µM	6.46 µM	1.97 µM	3.92 µM	2.94 µM	11.4 µM	11.1 µM	28.8 µM	1.5 µM	3.79 µM	2.75 µM	9.33 µM	–	–
C[C@]12Cc3conc3C(O)=C1CC[C@@H]1C2CC[C@@]2(C)C1CC[C@]2(C)O (stereo partly drawn)	–	> 100 µM	–	–	–	39.3 µM	–	22.7 µM	–	–	–	83 µM	–	> 100 µM	–	50.3 µM	–	> 100 µM	–	–
Cc1ccc(C)c(NC(=O)C(=O)C2C(=O)N(c3ccccc3)N=C2N)c1 (stereo not drawn)	–	> 100 µM	–	–	–	> 100 µM	–	> 100 µM	–	> 100 µM	–	> 100 µM	–	> 100 µM	–	> 100 µM	–	> 100 µM	> 100 µM	–
